PubChem BioAssay AID248 (DTP/NCI, 2004)
Values joined by “and” are separate entries in the source; they are usually repeats but may differ in a detail not shown here. Identical values can stand only once. Inconclusive results and toxic doses are left out. Cut-off read from the data, not from the text of the source: active = T/C of 150% or more; inactive = T/C below 125%.

Test system: L1210 leukemia ip in BDF1 mice, survival T/C
Test: NCI In Vivo Anticancer Drug Screen. Data for tumor model L1210 Leukemia (intraperitoneal) in B6D2F1 (BDF1) mice
Details: endpoint: mean survival time, higher = longer survival
Procedure, shortened: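 Tumor was transplanted into mice, which were then dosed with test compound or vehicle alone. Survival was recorded for each group, and the treated figure was expressed relative to the control figure.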

[1] = dose: 100.0 mg/kg/injection, schedule: Q01DX001 (ip), vehicle: saline with Tween-80
[2] = dose: 100.0 mg/kg/injection, schedule: Q01DX009 (ip), vehicle: saline with Tween-80
[3] = dose: 200.0 mg/kg/injection, schedule: Q01DX009 (ip), vehicle: saline with Tween-80
[4] = dose: 100.0 mg/kg/injection, schedule: Q04DX002 (ip), vehicle: Klucel (hydroxypropylcellulose) (HPC)
[5] = dose: 200.0 mg/kg/injection, schedule: Q04DX002 (ip), vehicle: Klucel (hydroxypropylcellulose) (HPC)
[6] = dose: 400.0 mg/kg/injection, schedule: Q04DX002 (ip), vehicle: Klucel (hydroxypropylcellulose) (HPC)
[7] = dose: 100.0 mg/kg/injection, schedule: Q01DX001 (ip), vehicle: carboxymethylcellulose (CMC)
[8] = dose: 200.0 mg/kg/injection, schedule: Q01DX001 (ip), vehicle: carboxymethylcellulose (CMC)
[9] = dose: 400.0 mg/kg/injection, schedule: Q01DX001 (ip), vehicle: carboxymethylcellulose (CMC)
[10] = dose: 50.0 mg/kg/injection, schedule: Q01DX001 (ip), vehicle: saline
[11] = dose: 100.0 mg/kg/injection, schedule: Q04DX003 (ip), vehicle: Klucel (hydroxypropylcellulose) (HPC)
[12] = dose: 100.0 mg/kg/injection, schedule: Q04DX003 (ip), vehicle: saline with Tween-80
[13] = dose: 200.0 mg/kg/injection, schedule: Q04DX003 (ip), vehicle: Klucel (hydroxypropylcellulose) (HPC)
[14] = dose: 200.0 mg/kg/injection, schedule: Q04DX003 (ip), vehicle: saline with Tween-80
[15] = dose: 400.0 mg/kg/injection, schedule: Q04DX003 (ip), vehicle: Klucel (hydroxypropylcellulose) (HPC)
[16] = dose: 100.0 mg/kg/injection, schedule: Q01DX001 (ip), vehicle: saline
[17] = dose: 200.0 mg/kg/injection, schedule: Q01DX001 (ip), vehicle: saline
[18] = dose: 400.0 mg/kg/injection, schedule: Q01DX001 (ip), vehicle: saline
[19] = dose: 100.0 mg/kg/injection, schedule: Q01DX009 (ip), vehicle: Klucel (hydroxypropylcellulose) (HPC)
[20] = dose: 200.0 mg/kg/injection, schedule: Q01DX009 (ip), vehicle: Klucel (hydroxypropylcellulose) (HPC)
[21] = dose: 400.0 mg/kg/injection, schedule: Q01DX009 (ip), vehicle: Klucel (hydroxypropylcellulose) (HPC)

Measured: T/C

Cc1ccc(S(=O)(=O)N(CC(=O)O)Cc2ccccc2)cc1
inactive: dose: 25.0 mg/kg/injection, schedule: Q01DX009 (ip), vehicle: sodium bicarbonate 104 % of control | dose: 50.0 mg/kg/injection, schedule: Q01DX009 (ip), vehicle: sodium bicarbonate 100 % of control | [1] 100 % of control | [2] 104 % of control | dose: 100.0 mg/kg/injection, schedule: Q01DX009 (ip), vehicle: sodium bicarbonate 98 % of control | dose: 200.0 mg/kg/injection, schedule: Q01DX001 (ip), vehicle: saline with Tween-80 97 % of control | [3] 110 % of control | dose: 200.0 mg/kg/injection, schedule: Q01DX009 (ip), vehicle: sodium bicarbonate 98 % of control | dose: 400.0 mg/kg/injection, schedule: Q01DX001 (ip), vehicle: saline with Tween-80 95 % of control | dose: 400.0 mg/kg/injection, schedule: Q01DX009 (ip), vehicle: saline with Tween-80 95 % of control and 112 % of control | dose: 400.0 mg/kg/injection, schedule: Q01DX009 (ip), vehicle: sodium bicarbonate 97 % of control | dose: 800.0 mg/kg/injection, schedule: Q01DX009 (ip), vehicle: saline with Tween-80 92 % of control | dose: 1600.0 mg/kg/injection, schedule: Q01DX009 (ip), vehicle: saline with Tween-80 117 % of control

O=C(NCc1ccccc1Cl)NC1CCCCC1
inactive: [4] 87 % of control | [5] 102 % of control | [6] 105 % of control

O=Cc1c(O)ccc2ccccc12
inactive: [4] 90 % of control | [5] 93 % of control | [6] 96 % of control

O=[N+]([O-])c1ccccc1/C=N/Nc1nnc(N/N=C/c2ccccc2[N+](=O)[O-])c2ccccc12
inactive: dose: 50.0 mg/kg/injection, schedule: Q01DX001 (ip), vehicle: carboxymethylcellulose (CMC) 104 % of control | [7] 93 % of control | [8] 98 % of control | [9] 98 % of control

C[n+]1c(/C=C/c2ccc3cccc(O)c3n2)ccc2cccc(O)c21
inactive: dose: 12.5 mg/kg/injection, schedule: Q01DX001 (ip), vehicle: saline 100 % of control | dose: 12.5 mg/kg/injection, schedule: Q01DX009 (ip), vehicle: saline with Tween-80 106 % of control | dose: 12.5 mg/kg/injection, schedule: Q04DX003 (ip), vehicle: saline 96 % of control | dose: 25.0 mg/kg/injection, schedule: Q01DX001 (ip), vehicle: saline 107 % of control | dose: 25.0 mg/kg/injection, schedule: Q01DX009 (ip), vehicle: saline with Tween-80 95 % of control | dose: 25.0 mg/kg/injection, schedule: Q04DX003 (ip), vehicle: saline 97 % of control | [10] 102 % of control | dose: 50.0 mg/kg/injection, schedule: Q04DX003 (ip), vehicle: saline 96 % of control

CC(=O)/C=C/c1c[nH]c(=O)[nH]c1=O
inactive: dose: 100.0 mg/kg/injection, schedule: Q04DX002 (ip), vehicle: saline with Tween-80 104 % of control | dose: 200.0 mg/kg/injection, schedule: Q04DX002 (ip), vehicle: saline with Tween-80 104 % of control | dose: 400.0 mg/kg/injection, schedule: Q04DX002 (ip), vehicle: saline with Tween-80 93 % of control

Cc1cc(=O)[nH]c(N)n1
inactive: [11] 114 % of control | [12] 98 % of control | [13] 101 % of control | [14] 98 % of control | [15] 93 % of control | dose: 400.0 mg/kg/injection, schedule: Q04DX003 (ip), vehicle: saline with Tween-80 96 % of control

NC(=O)c1ncn(C2OC(CO)C(O)C2O)c1N (stereo unspecified)
inactive: [10] 111 % of control | [16] 111 % of control | [17] 114 % of control

CC(=O)OC1CC2CCC1(S(=O)(=O)O)C2(C)C (stereo unspecified)
inactive: [16] 107 % of control | dose: 100.0 mg/kg/injection, schedule: Q04DX003 (ip), vehicle: saline 103 % of control | [17] 108 % of control | dose: 200.0 mg/kg/injection, schedule: Q04DX003 (ip), vehicle: saline 103 % of control | [18] 107 % of control | dose: 400.0 mg/kg/injection, schedule: Q04DX003 (ip), vehicle: saline 114 % of control

CC(=O)c1c(OC(C)C(=O)O)ccc2ccccc12 (stereo unspecified)
inactive: [16] 98 % of control | [17] 101 % of control | [18] 107 % of control

CC(O)(c1ccccc1)C1C(c2ccccc2)N1Cc1ccccc1 (stereo unspecified)
inactive: dose: 100.0 mg/kg/injection, schedule: Q04DX003 (ip), vehicle: saline sonified 96 % of control | dose: 200.0 mg/kg/injection, schedule: Q04DX003 (ip), vehicle: saline sonified 94 % of control | dose: 400.0 mg/kg/injection, schedule: Q04DX003 (ip), vehicle: saline sonified 91 % of control

Cc1cc(C(C)(C)C)c(SC(=O)N(C)C)c(C(C)(C)C)c1
inactive: [12] 97 % of control | [14] 95 % of control

O=C(O)C1CC(Br)C(Br)CC1C(=O)Nc1ccc(Cl)c(Cl)c1 (stereo unspecified)
inactive: [4] 115 % of control | [5] 121 % of control

CC(=O)OCCCCc1ccccc1
inactive: dose: 50.0 mg/kg/injection, schedule: Q01DX009 (ip), vehicle: saline with Tween-80 97 % of control | [2] 97 % of control | [3] 87 % of control

CCOC(=O)C(=O)Cc1sccc1[N+](=O)[O-]
inactive: [19] 93 % of control | [11] 94 % of control | [20] 94 % of control | [13] 92 % of control | [21] 100 % of control | [15] 100 % of control

CCCNC(=S)NC
inactive: [11] 90 % of control | [13] 95 % of control | [15] 109 % of control

CCOc1cc(C)c2cccc(C)c2n1
inactive: [7] 88 % of control | dose: 100.0 mg/kg/injection, schedule: Q01DX001 (ip), vehicle: other 95 % of control | [8] 96 % of control | dose: 200.0 mg/kg/injection, schedule: Q01DX001 (ip), vehicle: other 106 % of control | [9] 98 % of control

COc1cccc2c1C(=O)c1c(O)c3c(c(O)c1C2=O)CC(O)(C(C)=O)CC3OC1CC2NC(=O)OC2C(C)O1 (stereo unspecified)
inactive: [1] 114 % of control

CC(=O)/C(C)=N\NC(=O)c1ccccn1
inactive: dose: 25.0 mg/kg/injection, schedule: Q01DX015 (ip), vehicle: water 119 % of control | dose: 50.0 mg/kg/injection, schedule: Q01DX001 (ip), vehicle: water 108 % of control | dose: 50.0 mg/kg/injection, schedule: Q01DX015 (ip), vehicle: water 108 % of control | dose: 100.0 mg/kg/injection, schedule: Q01DX001 (ip), vehicle: water 121 % of control | dose: 100.0 mg/kg/injection, schedule: Q01DX015 (ip), vehicle: water 119 % of control | dose: 200.0 mg/kg/injection, schedule: Q01DX001 (ip), vehicle: water 108 % of control

COc1ccc(COC(=O)Nc2ccc(Br)cc2)c(OC)c1
inactive: [19] 98 % of control | [20] 104 % of control | [21] 101 % of control
